Data published in publication PMC7822874, “Chemoprotective antimalarials identified through quantitative high-throughput screening of Plasmodium blood and liver stage parasites” (Scientific Reports, 2021).
Read-outs that look alike come from different tables or passages of the source.

Legend:
HepG2 = details: human, hepg2 cells, 48 h
[1] = test system: P. berghei-ANKA-GFP-LucCON liver stage parasites in HepG2-A16-CD81EGFP cells; assay: P. berghei liver stage Pb-Luc assay, Method 1 (UCSD, 1536-well); format: cell-based, Plasmodium berghei; details: for activity at 1 µM / activity at 3 µM / AC50: Plasmodium berghei; for activity at 1 µM / activity at 3 µM: 48 h, average of 2 wells on a 1536 well plate; for Max Resp (signal direction of the dose response) / AC50: Method 1; for Max Resp (signal direction of the dose response): Decrease = decreasing P. berghei viability with dose, Increase = increasing signal, Inactive = no dose response
in vitro [2] = details: human
in vitro [3] = details: human, hepg2 cells
[4] = test system: Plasmodium falciparum Dd2 asexual blood stage parasites; assay: microbe, parasite or virus in culture; parameters: species or system Plasmodium falciparum Dd2 in human erythrocytes; single determination (one 11-point concentration-response curve); details: Plasmodium falciparum, DD2, Erythrocyte, 72 h; read-out: AC50
HepG2-A16-CD81EGFP cells = details: average of 2 wells; for HepG2 1uM growth rep1 / HepG2 1uM growth rep2: HepG2, 1 µM compound treatment (10 mM stocks); for HepG2 1uM growth rep1 / HepG2 3uM growth rep1: replicate 1, normalized; for HepG2 1uM growth rep2 / HepG2 3uM growth rep2: replicate 2, normalized; for HepG2 3uM growth rep1 / HepG2 3uM growth rep2: HepG2, 3 µM compound treatment (10 mM stocks)
[5] = 1 uM (compounds provided at 10 mM), column 11, read-out: Pb-Luc (P. berghei liver stage), % of control, lower concentration, first repeat
[6] = 1 uM (compounds provided at 10 mM), column 12, read-out: Pb-Luc (P. berghei liver stage), % of control, lower concentration, second repeat
[7] = 3 uM (compounds provided at 10 mM), column 8, read-out: Pb-Luc (P. berghei liver stage), % of control, higher concentration, first repeat
[8] = 3 uM (compounds provided at 10 mM), column 9, read-out: Pb-Luc (P. berghei liver stage), % of control, higher concentration, second repeat
[9] = HepG2-A16-CD81EGFP cells, uninfected
[10] = P. berghei liver stage, 1 µM compound treatment (10 mM stocks), replicate 1, normalized, read-out: PbLuc 1uM growth rep1
[11] = P. berghei liver stage, 1 µM compound treatment (10 mM stocks), replicate 2, normalized, read-out: PbLuc 1uM growth rep2
[12] = P. berghei liver stage, 3 µM compound treatment (10 mM stocks), replicate 1, normalized, read-out: PbLuc 3uM growth rep1
[13] = P. berghei liver stage, 3 µM compound treatment (10 mM stocks), replicate 2, normalized, read-out: PbLuc 3uM growth rep2

Compound	Log AC50 (M) (HepG2)	activity at 1 µM [1, 5] [%]	activity at 1 µM [1, 6] [%]	activity at 3 µM [1, 7] [%]	activity at 3 µM [1, 8] [%]	viability at 48 h, 1 µM (in vitro [2]; [9]) [%]	viability at 48 h, 3 µM (in vitro [2]; [9]) [%]	CC50 at 48 h (in vitro [3]) [µM]	AC50 [4] [µM]	also measured
COc1ccc2nc3cc(Cl)ccc3c(Nc3cc(C(C)C)c(O)cc3C)c2c1 [MLS000737404-01]	-4.3643	113	97	61	53	112	95	43.2	0.266	–
CN1C2CCC1/C(=C/c1ccccn1)C(=O)/C2=C\c1ccccn1 [MLS000702810-01]	-4.8143	–	–	–	–	–	–	15.3	–	Max Resp (signal direction of the dose response) [1]: Decrease; AC50 ([1]; Hill fit, 50% of maximum activity response, read-out: AC50): 0.794 µM; AC50 ([1]; log10 of molar AC50 from Hill fit, read-out: Log AC50 (converted)): 0.794 µM; viability at 48 h (in vitro [2]): 76.4%; viability at 48 h, 1 µM (in vitro [2]): 76.4%
Cc1cccc(-c2cc3nc(C)c(C)c(NCCCn4ccnc4)n3n2)c1 [MLS000529525-01]	-4.3143	–	–	–	–	–	–	48.5	5.31	HepG2 1uM growth rep1 (HepG2-A16-CD81EGFP cells): 101%; HepG2 1uM growth rep2 (HepG2-A16-CD81EGFP cells): 92%; HepG2 3uM growth rep1 (HepG2-A16-CD81EGFP cells): 82%; HepG2 3uM growth rep2 (HepG2-A16-CD81EGFP cells): 93%; activity at 1 µM [1, 10]: 138%; activity at 1 µM [1, 11]: 123%; activity at 3 µM [1, 12]: 94%; activity at 3 µM [1, 13]: 144%
CCCN(CCC)CCCN=C(S)Nc1ccc2nc(N3CCCC3)cc(C)c2c1 [MLS000730709-01]	-4.3643	141	128	67	66	112	103	43.2	–	–
Cc1cc(N)c2cc(NC(=O)/C=C/c3ccccc3Cl)ccc2n1 [MLS000737665-01]	-4.3643	86	67	21	37	105	108	43.2	1.88	–
O=C1NC(=S)S/C1=C\C=C\c1ccc([N+](=O)[O-])o1 [MLS000722913-01]	-4.8643	80	77	57	67	112	101	13.7	5.31	–
Cc1cc(O)c(-c2cc(C(=O)Nc3sc4c(c3C(=O)NCc3ccco3)CCC4)[nH]n2)cc1C [MLS000331999-01]	-4.4643	–	–	–	–	–	–	34.3	–	Max Resp (signal direction of the dose response) [1]: Inactive; viability at 66 h (in vitro [2]; [9]): 106%
ClC(Cl)(Cl)c1nc2ccccc2n2nncc12 [MLS001171504-01]	-4.3643	113	83	87	102	106	95	43.2	2.11	–
N=c1c2c(n(Cc3ccc(F)cc3)c3c1CCC3)CCCC2 [MLS000856097-01]	-4.7643	60	59	19	15	105	81	17.2	2.99	–
Cc1cc(Cl)c(S(=O)(=O)N2CCN(c3ccccn3)CC2)cc1OCC(=O)NC1CCCCC1 [MLS000693481-01]	-4.5643	102	96	68	80	91	105	27.3	0.668	–
CCN1CCN(Cc2ccc(NC(=O)c3ccc(C)c(NC(=O)c4cnc5cc(C(F)(F)F)ccc5c4O)c3)cc2C(F)(F)F)CC1 [MLS000911561-01]	-4.4643	–	–	–	–	107	104	34.3	0.531	–
CC(C)CN(Cc1cc(=O)oc2cc(-c3ccccc3)c(O)cc12)CC(C)C [MLS000779012-01]	-4.3643	87	88	59	60	98	101	43.2	–	–
OC(c1cc(-c2ccc(C(F)(F)F)cc2)nc(C(F)(F)F)c1)C1CCCCN1 (centres unmarked) [MLS000757046-01]	-4.3643	–	–	–	–	109	105	43.2	0.15	–
c1ccc(-c2nc(N3CCCCCC3)c3ccccc3n2)nc1 [MLS000042263-01]	-5.5643	–	–	–	–	102	88	2.73	1.68	–
CC(Sc1nc2ccccc2c(=O)n1C)C(=O)Nc1ccc2c(c1)OCCO2 (centres unmarked) [MLS002161477-01]	-4.3643	–	–	–	–	84	–	43.2	–	Max Resp (signal direction of the dose response) [1]: Inactive; viability at 48 h (in vitro [2]; [9]): 84%
Cc1cccc(NC2=C/C(=N\S(=O)(=O)c3cccs3)c3ccccc3C2=O)c1 [MLS000585840-01]	-4.4643	90	90	37	41	113	95	34.3	0.168	–
COc1ccc(/C=N/Nc2cc(C)nc3ccccc23)cc1 [MLS001210939-01]	-4.5143	–	–	–	–	92	87	30.6	2.11	–
COc1ccccc1CNCC(O)Cn1c2ccccc2c2ccccc21 (centres unmarked) [MLS000391556-01]	-4.4643	–	–	–	–	–	–	34.3	–	HepG2 1uM growth rep1 (HepG2-A16-CD81EGFP cells): 97%; HepG2 1uM growth rep2 (HepG2-A16-CD81EGFP cells): 92%; HepG2 3uM growth rep1 (HepG2-A16-CD81EGFP cells): 92%; HepG2 3uM growth rep2 (HepG2-A16-CD81EGFP cells): 93%; activity at 1 µM [1, 10]: 115%; activity at 1 µM [1, 11]: 98%; activity at 3 µM [1, 12]: 107%; activity at 3 µM [1, 13]: 96%
Cc1c2ccncc2c(C)c2c1[nH]c1ccccc12 [MLS001076505-01]	-4.3643	–	–	–	–	–	–	43.2	3.35	viability (in vitro [2]): 102%
